Data taken from patent US9376492B2, “Treatment of cancer” (Asclepiumm Limited, priority 2009, dated 2016).
“Also recorded” adds a separate entry of the source.

What was measured:
MDCK cells = assay: Blocking EMT assay (HGF/SF-induced EMT); assay type: cell-based; conditions: 2.5 ng/ml HGF/SF, 24 h
Protocol: Blocking EMT Assay: Antibodies or peptides were added to 10% sub-confluent MDCK cells cultured in standard medium with 2.5 ng/ml HGF/SF in 96-well plates for 24 h. EMT was induced by HGF/SF in MDCK cells without any antibody or peptide treatment. The effects of different antibodies and peptides in blocking EMT were investigated by adding different concentrations of them to 10% sub-confluent MDCK cells cultured in standard medium with 2.5 ng/ml HGF/SF.

[1] = tested on: human breast cancer MCF7 cells; assay: Cell invasion assay (Matrigel), MCF7; assay type: cell-based; conditions: human breast cancer MCF7 cells in Matrigel
Protocol: Cell Invasion Assay: Growth Factor-Reduced Matrigel™ Matrix (BD, Becton Dickinson Biosciences, Bedford, Mass., USA) was thawed in the fridge one day prior to its use. The Matrigel matrix was mixed by pre-cooled pipettes to homogeneity on ice. Four μl of the cell suspension (1×10^6 cells/ml) in standard medium without (Control) or with 1 μl different concentrations of antibody or peptide was mixed with 95 μl of Matrigel matrix in a cold Eppendorf tube. After thorough mixing using cooled pipettes, 30 μl of the cells in the Matrigel mixture was added to 48-well plates. The plates were incubated at 37° C. in a CO2 incubator for 1 h to polymerize the droplet mixtures. 250 μl of standard medium was added to cover the cell/Matrigel droplet and incubated for several days. Blindly-selected cell invasion images were recorded in four areas within a cell/Matrigel droplet by a Nikon 4500 Coolpix digital camera under the microscope.

Sequence | inhibition of EMT (MDCK cells) | inhibition of cell invasion ability [1]
KINATDADEPNTLNSKISYR (listed as Homo sapiens) [Peptide 4] | significantly blocked; also recorded: significantly inhibited | significantly inhibited
EELSAAHTLV (listed as Homo sapiens) [Peptide 7] | significantly blocked; also recorded: significantly inhibited | significantly inhibited
